Measurements published in paper PMC8260228, “Two de novo GluN2B mutations affect multiple NMDAR-functions and instigate severe pediatric encephalopathy” (eLife, 2021).
Like-named read-outs stand apart in the source and are kept apart here.

Key:
GluN1 = test system: GluN1; set-up: method as in Traynelis et al., 2010; conditions: ref Traynelis et al., 2010; cited from earlier work
hGluN1a + hGluN2Bwt [1] = biological target: T1, hGluN1a + hGluN2Bwt (Homo sapiens, UniProt Q05586+Q13224); assay: Assessing potentiation by D-serine, TEVC in oocytes; conditions: 100 μM D-serine, 5 mM glutamate, 1 μM glycine
T1 sequence (Q13224 27-1484, other chains not shown): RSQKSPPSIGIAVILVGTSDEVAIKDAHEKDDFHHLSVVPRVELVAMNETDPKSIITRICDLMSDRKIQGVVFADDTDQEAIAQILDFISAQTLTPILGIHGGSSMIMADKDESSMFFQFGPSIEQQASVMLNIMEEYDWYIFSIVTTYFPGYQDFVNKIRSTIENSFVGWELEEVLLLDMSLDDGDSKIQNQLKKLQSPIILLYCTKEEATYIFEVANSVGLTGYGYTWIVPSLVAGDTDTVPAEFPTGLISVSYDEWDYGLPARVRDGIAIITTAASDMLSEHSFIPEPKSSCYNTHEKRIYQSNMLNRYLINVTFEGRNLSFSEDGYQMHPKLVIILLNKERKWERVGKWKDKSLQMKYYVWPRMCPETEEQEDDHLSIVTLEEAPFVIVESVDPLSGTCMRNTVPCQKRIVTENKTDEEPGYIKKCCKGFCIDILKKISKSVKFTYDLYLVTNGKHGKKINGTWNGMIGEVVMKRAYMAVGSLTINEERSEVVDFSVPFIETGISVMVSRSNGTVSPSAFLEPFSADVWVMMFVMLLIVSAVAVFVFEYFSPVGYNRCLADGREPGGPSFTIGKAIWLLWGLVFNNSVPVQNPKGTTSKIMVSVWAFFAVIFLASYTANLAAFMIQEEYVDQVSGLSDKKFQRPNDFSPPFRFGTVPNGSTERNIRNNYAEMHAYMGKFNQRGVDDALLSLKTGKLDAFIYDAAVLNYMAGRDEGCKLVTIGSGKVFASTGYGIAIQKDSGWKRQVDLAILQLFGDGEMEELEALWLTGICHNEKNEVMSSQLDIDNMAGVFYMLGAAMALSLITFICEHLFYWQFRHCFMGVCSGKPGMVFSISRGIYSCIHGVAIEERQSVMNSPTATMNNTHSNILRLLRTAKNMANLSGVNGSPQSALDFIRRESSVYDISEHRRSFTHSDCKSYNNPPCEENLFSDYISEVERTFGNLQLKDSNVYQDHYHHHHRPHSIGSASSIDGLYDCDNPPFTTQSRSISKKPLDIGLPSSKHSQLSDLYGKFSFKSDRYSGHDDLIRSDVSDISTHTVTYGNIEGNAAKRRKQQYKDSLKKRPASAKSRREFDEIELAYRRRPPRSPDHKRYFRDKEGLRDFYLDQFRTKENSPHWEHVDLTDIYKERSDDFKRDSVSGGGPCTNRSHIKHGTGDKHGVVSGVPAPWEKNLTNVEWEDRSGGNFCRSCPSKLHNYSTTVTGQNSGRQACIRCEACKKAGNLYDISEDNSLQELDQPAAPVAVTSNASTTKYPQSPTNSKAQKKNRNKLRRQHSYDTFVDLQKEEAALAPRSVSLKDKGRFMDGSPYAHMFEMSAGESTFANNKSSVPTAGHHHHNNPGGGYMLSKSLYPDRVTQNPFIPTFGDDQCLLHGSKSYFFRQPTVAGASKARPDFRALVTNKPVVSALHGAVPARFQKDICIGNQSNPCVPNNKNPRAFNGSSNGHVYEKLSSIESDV

GluN2B-E413G = test system: GluN2B-E413G; set-up: method as in Swanger et al., 2016; conditions: read-out: glutamate potency EC50; ref Swanger et al., 2016; cited from earlier work
GRIN2A mutation D731N = test system: GRIN2A mutation D731N; set-up: method as in Swanger et al., 2016; conditions: ref Swanger et al., 2016; cited from earlier work
GluN2B-mutant = test system: GluN2B-mutant; set-up: method as in Soto et al., 2019; conditions: ref Soto et al., 2019; cited from earlier work
hGluN1a + hGluN2Bwt [2] = biological target: T1, hGluN1a + hGluN2Bwt; assay: Glutamate dose-response, TEVC in Xenopus oocytes; type: cell-based; set-up: expressed in transfected cells; host or cells: Xenopus laevis oocytes injected with in vitro transcribed mRNA (pCI-Neo plasmids produced by the Traynelis lab)
Text: All Experiments were approved by the Technion Institutional Animal Care and Use Committee (permit SB, no. IL-129-09-17). Xenopus laevis oocytes were harvested, prepared, and injected with mRNA as previously described ([Berlin et al., 2020]). Briefly, oocytes were obtained from anesthetized (by 0.4% tricaine solution) female frogs. Oocytes were extracted from ovaries, defolliculated by collagenase treatment in ND96 Ca^+2-free solution (in mM: 96 NaCl, 2 KCL, 1 MgCl2, 5 HEPES, pH 7.4) for about 45 min at RT. Cells were washed with ND96 Ca^+2 -free and transferred to enriched ND96 (NDE) consisting of ND96 supplemented with 1.8 mM CaCl2, 2.5 mM sodium pyruvate, 100 μg/ml streptomycin and 62.75 μg/ml penicillin. Stage V oocytes were manually isolated, incubated overnight at 18°C and injected with mRNA the next day.
For mRNA preparation, DNA plasmids were linearized by restriction enzymes (NotI), followed by in vitro mRNA transcription using mMessage-mMachine T7 kit (Thermo Scientific, Cat.#AM1344), as previously described ([Berlin et al., 2010]). mRNA concentrations were determined using a spectrophotometer. […]
Data were analyzed by Clampfit software (Molecular Devices, USA) and were fitted using Sygmaplot 11 (Systat software, inc) to Hill’s equation (Equation 1) from which we extracted EC50 values.

hGluN1a + hGluN2Bwt [3] = biological target: T1, hGluN1a + hGluN2Bwt; conditions: read-out: Glycine EC50; 5 mM glutamate
Description: Two electrode voltage clamp (TEVC) recordings were carried-out 24–72 hr following mRNA injections, as previously described ([Berlin et al., 2011]). Recordings were performed using commercial amplifier (Warner Instruments, USA) and Digitizer (Digidata-1550B; Molecular Devices, USA), controlled by pClamp10 software (Molecular Devices, USA). Electrodes consisted of pulled glass capillaries (by puller- Narishige, Japan) with chlorinated silver wire, filled with 3M KCl. Oocytes were clamped to −60 mV and perfused with nominally Mg^+2-free barth solution (in mM): 100 NaCl, 0.3 BaCl2, 5 HEPES, pH 7.3 (adjusted with NaOH).
Data were analyzed by Clampfit software (Molecular Devices, USA) and were fitted using Sygmaplot 11 (Systat software, inc) to Hill’s equation (Equation 1) from which we extracted EC50 values. […] IC50 values for Mg^+2 and proton inhibition were extrapolated by fitting the results to Hill’s equation (Equation 4). τoff values for apparent open probability were extrapolated by fitting the result to a mono-exponential function (Equation 5). t10-90% results were obtained by placing cursors at beginning and end of responses, then automatically assessed by the Clampfit software (under statistics, positive going). mEPSCs were detected off-line using pCLAMP 10’s template search. Briefly, 5–10 ‘minis’ were identified and selected by user, followed by an automated search. […]

hGluN1a + hGluN2Bwt [4] = biological target: T1, hGluN1a + hGluN2Bwt; assay: Apparent open probability: MK-801 block kinetics, TEVC in oocytes; type: cell-based; set-up: expressed in transfected cells; host or cells: Xenopus laevis oocytes injected with in vitro transcribed mRNA (pCI-Neo plasmids produced by the Traynelis lab); conditions: 1 μM MK-801 after 3 mM glutamate, 100 μM glycine
Description: MK-801 (activity-dependent pore blocker of GluNRs) was purchased from Alomone labs (cat.# M-230). One mM stock solutions were made by diluting lyophilized MK-801 in barth solution. […] Deactivation kinetics were fitted from which we extracted t10-90% or deactivation constant, τoff.
Data were analyzed by Clampfit software (Molecular Devices, USA) and were fitted using Sygmaplot 11 (Systat software, inc) to Hill’s equation (Equation 1) from which we extracted EC50 values. […] IC50 values for Mg^+2 and proton inhibition were extrapolated by fitting the results to Hill’s equation (Equation 4). τoff values for apparent open probability were extrapolated by fitting the result to a mono-exponential function (Equation 5). t10-90% results were obtained by placing cursors at beginning and end of responses, then automatically assessed by the Clampfit software (under statistics, positive going). mEPSCs were detected off-line using pCLAMP 10’s template search. Briefly, 5–10 ‘minis’ were identified and selected by user, followed by an automated search. All automatically identified minis were validated by user.

hGluN1a + hGluN2Bwt [5] = biological target: T1, hGluN1a + hGluN2Bwt; assay: Mg2+ dose-response (block), TEVC in Xenopus oocytes; type: cell-based; set-up: expressed in transfected cells; host or cells: Xenopus laevis oocytes injected with in vitro transcribed mRNA (pCI-Neo plasmids produced by the Traynelis lab); conditions: 5 mM glutamate, 100 μM glycine, −60 mV; read-out: Mg^+2 IC50 (−60 mV)
hGluN1a + hGluN2Bwt [6] = biological target: T1, hGluN1a + hGluN2Bwt
Description: With the intent to rescue (i.e. increase) current amplitudes, we turned our attention toward spermine— a naturally-occurring and highly specific GluN2B-subunit potentiator ([Mony et al., 2009]; [Mony et al., 2011]). […] To further address this issue we employed arcaine-sulfate (a competitive antagonist of the polyamine site [[Gomes et al., 2014]; [Araneda et al., 1999]; [Reynolds, 1990]]).
Spermine was purchased from Sigma-Aldrich (Cat. #S3256). A total of 200 mM stock solutions were made by diluting powdered spermine in barth solution at different pHs (6.3 and 7.3). […] Arcaine sulfate was purchased from Alomone labs (Cat. # 14923-17-2). Ten mM solutions were made by diluting lyophilized Arcaine sulfate in barth solution at pH = 6.5.

GluN2B-subunit = conditions: read-out: spermine reported EC50; ref Mony et al., 2011; cited from earlier work

## N[C@H](CO)C(=O)O [D-serine]
GluN1
  EC50: ~700 nM
hGluN1a + hGluN2Bwt [1]
  increase of the maximal current by D-serine: ~ 35%

## N[C@@H](CCC(=O)O)C(=O)O [Glutamate, glutamate]
GluN2B-E413G
  EC50: 79 ± 5.3 µM
GRIN2A mutation D731N
  reduction in glutamate potency: ~ 6000 fold
GluN2B-mutant
  reduction in EC50: ~ 7 fold
hGluN1a + hGluN2Bwt [2]; normalized maximal glutamate current, oocytes
  Imax Norm. to wt: 1 ± 0.08; (22)
hGluN1a + hGluN2Bwt [2]; receptors saturated at 100 μM glutamate
  contribution to the total current by excess glutamate >100 μM: < 15%

## NCC(=O)O [Glycine, glycine]
hGluN1a + hGluN2Bwt [3]
  EC50: 230 ± 30 nM
GluN1
  EC50: […]

## C[C@]12N[C@H](Cc3ccccc31)c1ccccc12 [MK-801]
hGluN1a + hGluN2Bwt [4]
  10–90% inhibition rate: 8554 ± 827 ms; (24)
hGluN1a + hGluN2Bwt [4]; mono-exponential fit
  τoff: 4590 ± 603 ms; (24)

## [Mg+2] [Mg^+2]
hGluN1a + hGluN2Bwt [5]
  IC50: 31 ± 3.7 µM

## NCCCNCCCCNCCCN [spermine]
hGluN1a + hGluN2Bwt [6]; 200 μM spermine, pH 6.3
  potentiation by spermine: ~ 25 fold
hGluN1a + hGluN2Bwt [6]; 200 μM spermine, pH 7.3
  potentiation by spermine: ~ 70%
hGluN1a + hGluN2Bwt [6]; 200 μM spermine, pH 7.3, 5 mM glutamate, 100 μM glycine
  current with spermine relative to basal glutamate current: 172%
hGluN1a + hGluN2Bwt [6]; pH 7.3
  inhibition by higher spermine concentrations: not observed
GluN2B-subunit
  EC50: 200 µM
